Experimental data from patent US8603482B2, “Compositions and methods for cancer immunotherapy” (Eisai R&D Management Co., Ltd., priority 2005, dated 2013).
Several values for one entry are separate records, joined by “and”; a condition that tells them apart may be missing. Identical values can stand only once.

B1: GM-CSF: murine GM-CSF, a cytokine used in cancer vaccine trials to boost immune response (protein, UniProt P01587 18-141, looked up)
Granulocyte-macrophage …: APTRSPITVTRPWKHVEAIKEALNLLDDMPVTLNEEVEVVSNEFSFKKLTCVQTRLKIFEQGLRGNFTKLKGALNMTASYYQTYCPPTPETDCETQVTTYADFIDSLKTFLTDIPFECKKPGQK

Tests used:
[1] = system: B16F10 murine melanoma cells; assay: Survival of B16F10 melanoma-bearing mice, intratumoral GM-CSF cells with E6020; format: in vivo, B6 mice; conditions: intratumoral GM-CSF cells in combination with E6020 (about 3-10 μg) when tumors palpable; versus untreated or GM-CSF cells alone; FIG. 2
Procedure: The effect of E6020 on treatment of B6 mice that were engrafted subcutaneously with 1×10^6 syngeneic B16F10 murine melanoma cells was examined. When tumors became palpable, the mice were injected intratumorally with GM-CSF cells alone, or in combination with E6020 (about 3-10 μg). Survival of the animals was monitored.

[2] = system: B16F10 murine melanoma cells; assay: Survival of B16F10 melanoma-bearing mice, i.p. E6020 with s.c. GM-CSF-secreting tumor cell vaccine; format: in vivo, B6 mice (C57BL/6 mice); conditions: i.p. E6020 plus s.c. irradiated B16-GM-CSF cells at separate sites, three days after s.c. B16F10 inoculation; FIG. 1
Excerpt: To determine the effect of E6020, a sodium salt of ER 804057, when administered intraperitoneally with a cancer vaccine, e.g., granulocyte-macrophage colony stimulating factor (GM-CSF) secreting tumor cells, a mouse model using melanoma cells was used.
E6020 is a TLR4 (Toll-like receptor-4) agonist. B6 mice (C57BL/6 mice) were engrafted subcutaneously with 1×10^6 syngeneic B16F10 murine melanoma cells. Three days after tumor cell inoculation, the mice were either (1) vaccinated subcutaneously (s.c.) with 1×10^6 B16F10 tumor cells that were genetically modified to stably express and secrete murine GM-CSF (B16-GM-CSF cells); (2) vaccinated intraperitoneally (i.p.) with E6020; or (3) were treated with a combination of s.c. GM-CSF cell vaccination and i.p. E6020 (the GM-CSF cell vaccination and E6020 vaccination were administered at separate sites in the mice). In these experiments, the GM-CSF cells were inactivated by gamma-irradiation prior to inoculation. Survival of the animals was monitored.

[3] = system: MUC1 IL-10−/− mice; assay: MUC-1 vaccine with E6020 adjuvant in mice that develop IBD followed by colon adenocarcinoma; format: in vivo, mouse
Procedure: To test the effects of a MUC-1 vaccine with E6020 adjuvant for treating inflammatory bowel disease (IBD) and subsequent development of colon adenocarcinoma, an engineered mouse strain that lacks the IL-10 gene and expresses transgenic human MUC1 was used. Such mice spontaneously develop intestinal inflammation resembling IBD followed by colon adenocarcinoma. […] 4, 2006.
In these experiments, mice were immunized intranasally with […] of Tn MUC100mer ([…])×5, SEQ ID NO:1) and […] of E6020. Animals were vaccinated at about 4.5 weeks and boosted at about 6.5 weeks and 9 weeks.

[4] = system: EGFRvIII peptide; assay: EGFRvIII peptide-specific antibody titers by ELISA after immunization with peptide-KLH conjugate; format: in vivo, C57/BL6J mice; conditions: for Geometric mean titer: IgG1 / Geometric mean titer: IgG2a: antigen administered with the named adjuvant, 8 animals; for IgG1 antibody titer to EGFRvIII peptide, individual animals / IgG2a antibody titer to EGFRvIII peptide, individual animals: s.c. peptide-KLH conjugate 25 μg with E6020 3 μg and/or GM-CSF 5 μg, three immunizations at three-week intervals, titer = last serum dilution with signal 0.25 OD units above background
Procedure: To determine whether an adjuvant can enhance the effect of an oncology antigen (i.e., an antigen that can be used to vaccinate an animal against a cancer), C57/BL6J mice were immunized subcutaneously with a tumor-associated peptide, LEEKKGNYVVTDHC (SEQ ID NO: 2) (derived from a mutant form of EGFR, EGFRvIII) conjugated to the protein carrier keyhole limpet hemocyanin (KLH), with or without E6020 or murine GM-CSF, a cytokine used in cancer vaccine trials to boost immune response. E6020 was dosed at 3 μg, GM-CSF at 5 μg and the peptide-KLH conjugate at 25 μg per dose. Mice were immunized three times at intervals of three weeks. Serum was prepared from mice two weeks after each immunization and tested for EGFRvIII peptide-specific antibodies using ELISA on plates coated with EGFRvIII peptide conjugated to bovine serum albumin. The results in Table 2 are presented as titers from individual animals. The titer is defined as the last serum dilution at which a signal at 0.25 OD units above background was observed.

[5] = addition of E6020 to the MUC-1 vaccine

Molecule | survival of tumor-bearing mice [1] | therapeutic efficacy (survival of tumor-bearing mice) [2] | appearance of histologically detected tumors [3, 5] | progression to rectal prolapse associated with IBD [3, 5] | Colon tumors ([3]; mice with colon tumors / mice treated, MUC1 IL-10−/− mice) | Geometric mean titer: IgG1 [4] | Geometric mean titer: IgG2a [4] | IgG1 antibody titer to EGFRvIII peptide, individual animals [4] | IgG2a antibody titer to EGFRvIII peptide, individual animals [4] | effect on antigen-specific IgG2a titers (in words) ([4]; vaccination with EGFRvIII peptide-KLH)
CCCCCCCCCCCC(=O)CC(=O)N[C@H](COCC[C@@H](CCCCCCC)OC(=O)CCCCCCCCCCC)COP(=O)(O)OCCNC(=O)NCCOP(=O)(O)OC[C@@H](COCC[C@@H](CCCCCCC)OC(=O)CCCCCCCCCCC)NC(=O)CC(=O)CCCCCCCCCCC [E6020] | increased survival | enhanced the therapeutic efficacy of the GM-CSF cells | suppresses the appearance of histologically detected tumors | slow the progression to rectal prolapse associated with IBD | 3/3 | 20182 | 10091 | 24000 (6×) and 48000 and 3000 | 12000 (3×) and 24000 and 48000 and 1500 and 6000 (2×) | enhanced the mean titer of antigen-specific IgG2a
B1 | – | – | – | – | – | 24000 | 3568 | 24000 (2×) and 48000 (3×) and 12000 (3×) | 3000 (2×) and 6000 (3×) and 24000 and 750 (2×) | –
